Results on two compounds are retold here after patent US8937052B2, “Therapeutic protocols using hyaluronan” (Alchemia Oncology Pty Limited, priority 2005, dated 2015).

Series [1] in a line: In situ perfusion: survival until experimental end-point. The settings on record: irinotecan 60 mg/kg single i.v. Type of series: in vivo, Wistar rats.
For series [2] the following is noted: irinotecan 60 mg/kg i.v. (HyCAMP 26.6/60); 90 minute time point.
The conditions of series [3]: irinotecan 30 mg/kg i.v. (HyCAMP 26.6/30); 120 min.
For series [4] the following is noted: irinotecan 30 mg/kg i.v.
The target in series [5] is T1, tumour cell endogenous beta-glucuronidase (Homo sapiens, UniProt P08236).
T1 construct: Activity of Endogenous Beta-Glucuronidase in Tumor Cells In Vitro; endogenous in cells; host or cells: HCT-116, LIM-1215, LIM-2099, SK-CO1, SW-1222, HT-29, SW-620, MSTO-211H, MDA-MB-468, MDA-MB-435 lysates
T1 sequence (P08236 23-651): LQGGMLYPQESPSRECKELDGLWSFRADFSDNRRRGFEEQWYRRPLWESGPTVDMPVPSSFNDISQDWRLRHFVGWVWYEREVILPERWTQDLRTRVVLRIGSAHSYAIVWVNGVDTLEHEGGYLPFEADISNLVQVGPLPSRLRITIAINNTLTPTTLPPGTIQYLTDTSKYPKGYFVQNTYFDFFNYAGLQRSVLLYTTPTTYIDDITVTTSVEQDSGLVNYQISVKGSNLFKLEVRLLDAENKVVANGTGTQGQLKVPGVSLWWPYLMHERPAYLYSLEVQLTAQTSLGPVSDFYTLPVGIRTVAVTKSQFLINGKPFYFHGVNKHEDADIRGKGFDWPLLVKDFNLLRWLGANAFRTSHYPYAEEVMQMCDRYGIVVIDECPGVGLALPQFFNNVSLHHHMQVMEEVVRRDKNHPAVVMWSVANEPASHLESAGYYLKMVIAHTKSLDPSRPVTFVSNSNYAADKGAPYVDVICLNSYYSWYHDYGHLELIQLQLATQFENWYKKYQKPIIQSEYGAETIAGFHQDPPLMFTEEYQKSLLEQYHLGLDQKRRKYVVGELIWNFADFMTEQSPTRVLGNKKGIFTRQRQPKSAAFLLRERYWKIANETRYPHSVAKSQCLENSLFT
Briefly: Endogenous beta-glucuronidase activity in tumour cell lysates incubated overnight with HA, compared to samples not containing hyaluronan. The series is classed as biochemical. The conditions noted are these: modelled from ≧2 μg of HA per μg tumour cell protein and 0.135 ng protein/cell. As to the method: Stocks of the tumor cell lysates (0.8 mg protein/ml) were prepared from the original cell lysates. The hyaluronan stock of 10 mg/ml (10 kDa & 860 kDa) was diluted with potassium phosphate buffer to achieve 8 mg/ml, 3.2 mg/ml, 1.6 mg/ml, 0.4 mg/ml, 0.2 mg/ml, 0.04 mg/ml, 0.02 mg/ml and 0.0008 mg/ml of hyaluronan. The 25 mg/ml of <2 kDa HA was diluted further with potassium phosphate buffer to achieve 8 mg/ml, 3.2 mg/ml, 1.6 mg/ml, 0.4 mg/ml, 0.2 mg/ml, 0.04 mg/ml, 0.02 mg/ml and 0.0008 mg/ml of hyaluronan. The assay samples were prepared by aliquoting 125 μl of the different dilutions of hyaluronan to an Eppendorf tube containing 125 μl of 0.8 mg protein/ml cell lysates of the following cell lines; HCT-116, LIM-1215, LIM-2099, SK-CO1, SW-1222, HT-29, SW-620, MSTO-211H, MDA-MB-468 and MDA-MB-435. […] On completion of the incubation, the samples were thoroughly mixed by repeated invert mixing (˜20 times) after which the beta-glucuronidase was quantified using the 96-well-plate method.
The assay was performed in the wells of a black clear-bottom 96-well-plate where 50 μL of the tumour cell lysates (20 μg protein) were added to the wells and 50 μL of 75 mM of potassium phosphate buffer was used as the control blanking well. […] On completion of the incubation, 50 μL of stop buffer was added and the plate was read at 350 nm excitation and 450 nm emission on a Fluostar Optima plate reader.

Series [6] deals with Carboxylesterase. Briefly: Carboxylesterase activity in tissue homogenates of the liver and the GI-tract. The series is classed as biochemical. An excerpt:
Carboxylesterase • 2. beta-glucuronidase
Tissue homogenates of the liver and the GI-tract were used as the source of each enzyme. […] In addition to this mechanism, inhibition of beta-glucuronidase in the lumen of the GI tract would prevent the generation of SN-38 from SN-38G.

The conditions of series [7]: in vivo. An excerpt: HA. […] All body organs and fluids were removed, weighed and [^3H] radioactivity quanitated using β-scintillation counting.

Counter-ions that a name gives are not always drawn.

On to `CCc1c2c(nc3ccc(OC(=O)N4CCC(N5CCCCC5)CC4)cc13)-c1cc3c(c(=O)n1C2)COC(=O)[C@]3(O)CC` [CPT-11, Irinotecan hydrochloride], for which, in series [1], the “survival until experimental end-point” value is “only one rat survived”. Besides, the “cumulative biliary excretion of CPT-11” value in series [2] worked out at 1388 µg. In addition, the “cumulative intestinal exsorption of CPT-11” value in series [3] came out at 525 µg. For the same compound, the “quantities of SN-38 found in the spleen and lung” value in series [4] is recorded as “could not be detected”.

In the case of hyaluronan [HA], the “HA per cell resulting in stimulation of endogenous beta-glucuronidase activity” value in series [5] is given as not below 270 pg HA/cell. In addition, in series [6], the “effect on carboxylesterase activity” value is reported as “did not affect the activity of carboxylesterase”. Moreover, in series [7], the “HA per tumour cell” value is 51.6 pg of HA/cell and the “HA that would accumulate per gram of tumour” value is “approximately 51.6 mg”.
